{
  "source": "ChEMBL document CHEMBL1144329",
  "about": "“De novo design, synthesis, and in vitro activity of LFA-1 antagonists based on a bicyclic[5.5]hydantoin scaffold” (Bioorg Med Chem Lett, 2005)",
  "data": [
    {"molecular_target": "Intercellular adhesion molecule (ICAM-1), Integrin alpha-L/beta-2 (Homo sapiens, UniProt P05107+P20701)", "sequence (P20701 whole entry)": "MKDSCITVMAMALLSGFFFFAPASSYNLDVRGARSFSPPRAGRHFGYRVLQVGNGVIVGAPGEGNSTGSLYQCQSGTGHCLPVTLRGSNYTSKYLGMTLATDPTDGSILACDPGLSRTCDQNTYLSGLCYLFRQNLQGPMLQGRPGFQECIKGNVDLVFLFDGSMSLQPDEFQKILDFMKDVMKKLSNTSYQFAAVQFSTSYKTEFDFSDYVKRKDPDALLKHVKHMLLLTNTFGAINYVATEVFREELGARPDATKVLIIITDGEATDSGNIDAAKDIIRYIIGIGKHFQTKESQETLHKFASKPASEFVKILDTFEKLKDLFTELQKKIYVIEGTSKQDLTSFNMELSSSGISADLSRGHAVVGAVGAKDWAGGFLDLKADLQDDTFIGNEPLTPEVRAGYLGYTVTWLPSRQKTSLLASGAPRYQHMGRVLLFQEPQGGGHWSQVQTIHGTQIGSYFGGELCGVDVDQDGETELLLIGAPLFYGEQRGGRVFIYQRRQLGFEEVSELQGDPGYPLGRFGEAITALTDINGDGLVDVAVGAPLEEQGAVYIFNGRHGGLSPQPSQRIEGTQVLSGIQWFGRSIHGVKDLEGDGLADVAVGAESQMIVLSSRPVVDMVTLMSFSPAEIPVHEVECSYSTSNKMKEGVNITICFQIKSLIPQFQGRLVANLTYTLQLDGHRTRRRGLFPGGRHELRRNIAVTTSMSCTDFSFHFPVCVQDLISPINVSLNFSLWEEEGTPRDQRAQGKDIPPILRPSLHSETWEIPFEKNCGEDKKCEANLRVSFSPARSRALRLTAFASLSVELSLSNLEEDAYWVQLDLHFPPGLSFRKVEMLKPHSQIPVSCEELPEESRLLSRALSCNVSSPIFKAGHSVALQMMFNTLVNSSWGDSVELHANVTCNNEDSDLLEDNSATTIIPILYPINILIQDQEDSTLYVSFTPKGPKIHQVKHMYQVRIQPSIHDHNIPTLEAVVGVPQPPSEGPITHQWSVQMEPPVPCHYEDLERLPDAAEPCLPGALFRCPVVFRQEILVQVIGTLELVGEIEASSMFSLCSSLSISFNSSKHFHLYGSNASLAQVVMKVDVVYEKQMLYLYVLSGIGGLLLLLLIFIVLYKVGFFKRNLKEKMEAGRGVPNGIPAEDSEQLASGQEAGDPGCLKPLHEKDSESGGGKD", "sequence (P05362 whole entry, further chain)": "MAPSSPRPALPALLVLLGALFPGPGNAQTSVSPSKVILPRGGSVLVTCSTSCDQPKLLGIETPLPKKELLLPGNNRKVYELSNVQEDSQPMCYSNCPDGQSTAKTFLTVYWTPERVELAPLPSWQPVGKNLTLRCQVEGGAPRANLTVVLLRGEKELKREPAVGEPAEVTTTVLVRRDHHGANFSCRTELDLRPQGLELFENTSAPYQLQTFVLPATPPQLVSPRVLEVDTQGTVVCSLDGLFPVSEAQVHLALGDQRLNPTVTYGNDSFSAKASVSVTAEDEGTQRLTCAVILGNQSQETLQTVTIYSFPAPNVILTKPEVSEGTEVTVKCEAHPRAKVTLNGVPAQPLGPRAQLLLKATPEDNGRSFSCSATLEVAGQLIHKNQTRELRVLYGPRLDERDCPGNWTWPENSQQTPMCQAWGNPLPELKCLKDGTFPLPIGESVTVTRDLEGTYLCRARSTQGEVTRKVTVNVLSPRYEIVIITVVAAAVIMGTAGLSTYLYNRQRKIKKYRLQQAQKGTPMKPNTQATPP", "sequence (P05107 whole entry)": "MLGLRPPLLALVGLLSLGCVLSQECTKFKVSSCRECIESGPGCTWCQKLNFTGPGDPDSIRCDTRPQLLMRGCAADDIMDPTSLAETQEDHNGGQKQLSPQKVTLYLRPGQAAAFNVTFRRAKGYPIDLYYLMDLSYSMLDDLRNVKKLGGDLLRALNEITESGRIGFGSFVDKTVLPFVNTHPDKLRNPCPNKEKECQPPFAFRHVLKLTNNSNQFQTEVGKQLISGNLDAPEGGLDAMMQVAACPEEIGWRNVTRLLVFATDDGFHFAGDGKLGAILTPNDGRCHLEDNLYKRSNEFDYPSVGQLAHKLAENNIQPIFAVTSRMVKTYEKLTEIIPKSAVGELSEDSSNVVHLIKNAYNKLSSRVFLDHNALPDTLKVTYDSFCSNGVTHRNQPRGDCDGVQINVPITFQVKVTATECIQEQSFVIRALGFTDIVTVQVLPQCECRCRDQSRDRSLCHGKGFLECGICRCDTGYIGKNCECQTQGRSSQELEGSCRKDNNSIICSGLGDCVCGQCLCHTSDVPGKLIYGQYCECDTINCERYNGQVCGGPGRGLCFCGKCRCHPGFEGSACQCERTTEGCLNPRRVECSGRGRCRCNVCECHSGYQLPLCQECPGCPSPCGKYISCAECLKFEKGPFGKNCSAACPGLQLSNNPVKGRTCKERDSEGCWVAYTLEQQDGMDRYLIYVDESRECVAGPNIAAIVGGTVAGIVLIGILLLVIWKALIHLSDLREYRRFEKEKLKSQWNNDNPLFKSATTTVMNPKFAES", "experiment": "Inhibitory concentration against leukocyte function-associated antigen-1 in HSB-2 human lymphoblast and H1HeLa cell adhesion assay", "type": "functional, cell-based, H1-HeLa", "units": {"IC50": "nM"}, "values": [
      {"smiles": "O=C1[C@H]2C[C@@H](OCc3cccc(-c4ccc(Cl)cc4)c3)CN2C(=O)N1c1cc(Cl)cc(Cl)c1", "IC50": 620},
      {"smiles": "O=C1[C@@H]2C[C@H](SCc3cccc(-c4ccc(Br)cc4)c3)CN2C(=O)N1c1cc(Cl)cc(Cl)c1", "IC50": 290},
      {"smiles": "CCN(Cc1cccc(-c2ccc(C#N)cc2)c1)[C@H]1C[C@H]2C(=O)N(c3cc(Cl)cc(Cl)c3)C(=O)N2C1", "IC50": 730},
      {"smiles": "O=C1[C@@H]2C[C@H](OCc3cccc(-c4ccc(Br)cc4)c3)CN2C(=O)N1c1cc(Cl)cc(Cl)c1", "IC50": 85},
      {"smiles": "O=C1[C@@H]2C[C@H](OCc3cccc(-c4cccc(Br)c4)c3)CN2C(=O)N1c1cc(Cl)cc(Cl)c1", "IC50": 755},
      {"smiles": "N#Cc1ccc(-c2cccc(CO[C@H]3C[C@H]4C(=O)N(c5cc(Cl)cc(Cl)c5)C(=O)N4C3)c2)cc1", "IC50": 270},
      {"smiles": "O=C1[C@@H]2C[C@@H](OCc3cccc(-c4ccc(Br)cc4)c3)CN2C(=O)N1c1cc(Cl)cc(Cl)c1", "IC50": 935},
      {"smiles": "O=C1[C@@H]2C[C@H](Oc3ccc(-c4ccc(Br)cc4)cc3)CN2C(=O)N1c1cc(Cl)cc(Cl)c1", "IC50": 480},
      {"smiles": "CN(Cc1cccc(-c2ccc(Br)cc2)c1)[C@H]1C[C@H]2C(=O)N(c3cc(Cl)cc(Cl)c3)C(=O)N2C1", "IC50": 175},
      {"smiles": "O=C1[C@H]2C[C@@H](OCc3cccc(-c4ccc(Br)cc4)c3)CN2C(=O)N1c1cc(Cl)cc(Cl)c1", "IC50": 275},
      {"smiles": "N#Cc1ccc(-c2cccc(CN[C@H]3C[C@H]4C(=O)N(c5cc(Cl)cc(Cl)c5)C(=O)N4C3)c2)cc1", "IC50": 175}
    ]}
  ]
}
